Assay results published in patent US12233088B2 (Alexion Pharmaceuticals, Inc., priority 2017, dated 2025).

System: patients with Wilson's disease
Description: This open-label, phase 2 study was performed at 11 hospitals in the USA and in Europe. […] Investigators, other hospital personnel, and patients were aware of the identity of the treatment. […] This study is registered with ClinicalTrials.gov, number NCT02273596.
The open-label, phase 2 study was performed at 11 hospitals. Eligible patients were aged 18 years or older, with a diagnosis of Wilson's disease established by a Leipzig score of 4 or more. […] Patients with decompensated hepatic cirrhosis, a MELD score greater than 11, or a modified Nazer score (revised King's score) greater than 6 were excluded.
Investigators, other hospital personnel, patients, and the study sponsor were aware of the identity of the treatment.
Up-titration was stepwise, with each increase restricted to double the previous dose, and not permitted if NCC was within or below the normal range.
Using values for plasma total copper and ceruloplasmin concentrations, NCC was calculated by subtracting the amount of copper bound to ceruloplasmin from total copper concentrations (determined with inductively coupled plasma mass spectrometry). […] The correction method used the average molar ratio of copper to molybdenum in the tripartite complex, which was determined using the relationship between NCC and plasma molybdenum concentrations and confirmed by two independent methods. The NCC correction method was validated using random selections of test and validation samples.
The primary endpoint was change in NCCcorrected from baseline to 24 weeks, which was measured as NCC concentrations corrected for copper contained in tetrathiomolybdate-copper-albumin complexes (NCCcorrected).
Secondary endpoints were safety and tolerability, change in and time to normalisation of NCCcorrected level clinical neurological disease, liver function, clinical symptoms, health-related quality of life (HRQoL), psychiatric status, and pharmacokinetics and exchangeable copper, speciation profiling, and urinary copper. Psychiatric status, pharmacokinetics data, and copper endpoints were also measured. Neurological disease was assessed as patient-reported disability, measured with UWDRS part II, and also as trained-rater-assessed neurological status, measured with UWDRS part III. Liver synthetic function was assessed by monitoring of international normalised ratio (INR) and albumin concentrations. Additionally, changes in liver function were assessed by modified Nazer score (based on bilirubin, INR, AST, albumin, and white blood cell count) and, in a post-hoc analysis, by the MELD score (based on bilirubin, creatinine, INR, and cause of liver disease). HRQoL was measured with the EuroQoL 5 Dimensions Visual Analogue Scale (EQ VAS).
Adverse event (AE) data was collected for onset, duration, seriousness, and severity, with relation to study medication determined by the investigator.
Since the aim of the study was to present primarily descriptive statistics, no formal power calculations were performed. Changes in copper concentrations and scores were summarised over time with descriptive statistics. Mixed-model repeated-measures analysis with a fixed-effect term were applied for clinic visit, and a spatial power covariance structure was applied to model the within-participant errors. A spatial power covariance structure was selected because it assumes that the within-participant correlation decays as the time distance increases between repeated measures. SAS (version 9.3) was utilised to provide change in least-squares mean over time, and the associated 95% CIs, SE, and two-sided p values.

[1] = baseline to week 24, least-squares mean, mixed-model repeated measures
[2] = baseline to week 24, mixed-model repeated measures
[3] = mixed-model repeated measures using all visits up to week 24

`C[N+](C)(C)CCO.C[N+](C)(C)CCO.[SH-].[SH-].[S]=[Mo]=[S]` [WTX101, bis-choline tetrathiomolybdate] was tested, and the “Patients reporting at least one treatment-emergent adverse event, Number of Patients (%)” value (24 weeks, N=28) was 17 (61%), the “adverse event ALT increased, Number of Patients (%)” value (24 weeks, N=28) was 8 (29%) and the “adverse event AST increased, Number of Patients (%)” value (24 weeks, N=28) was 7 (25%). For the same compound, the “adverse event Blood alkaline phosphatase increased, Number of Patients (%)” value (24 weeks, N=28) was 3 (11%), the “adverse event Dry Skin, Number of Patients (%)” value (24 weeks, N=28) was 2 (7%) and the “adverse event GGT increased, Number of Patients (%)” value (24 weeks, N=28) was 8 (29%). For the same compound, the “adverse event Headache, Number of Patients (%)” value (24 weeks, N=28) was 2 (7%), the “adverse event Hepatic enzyme increased, Number of Patients (%)” value (24 weeks, N=28) was 4 (14%) and the “adverse event Nausea, Number of Patients (%)” value (24 weeks, N=28) was 2 (7%). For the same compound, the “adverse event Tremor, Number of Patients (%)” value (24 weeks, N=28) was 2 (7%), the “Relationship to the study drug as deemed by the investigator: ALT increased” value (SAE, baseline to week 24) was “Possible” and the “Relationship to the study drug as deemed by the investigator: Abnormal behavior” value (SAE, baseline to week 24) was “Unrelated”. The “Relationship to the study drug as deemed by the investigator: Adjustment disorder” value (SAE, baseline to week 24) was “Unrelated”, the “Relationship to the study drug as deemed by the investigator: Affective disorder” value (SAE, baseline to week 24) was “Unrelated” and the “Relationship to the study drug as deemed by the investigator: Agranulocytosis” value (SAE, baseline to week 24) was “Probable”. The “Relationship to the study drug as deemed by the investigator: Gait disturbance” value (SAE, baseline to week 24) was “Unlikely”, the “Relationship to the study drug as deemed by the investigator: Hepatic enzyme increased (severe ALT/AST elevation)” value (SAE, baseline to week 24) was “Probable” and the “Relationship to the study drug as deemed by the investigator: Mania” value (SAE, baseline to week 24) was “Unlikely”. The “Relationship to the study drug as deemed by the investigator: Personality disorder” value (SAE, baseline to week 24) was “Unlikely”, the “Relationship to the study drug as deemed by the investigator: Psychotic disorder” value (SAE, baseline to week 24) was “Unrelated” and the “Relationship to the study drug as deemed by the investigator: Decline in neurological functioning” value (SAE, baseline to week 24, likely due to disease progression) was “Possible”. For the same compound, the “week by which mean NCCcorrected was below the upper limit of normal” value (ULN 2.3 μmol/L) was at most 12 week, the “time to normalisation of liver function tests” value (after dose adjustments or treatment interruption) was 1-2 weeks and the “time of occurrence of liver enzyme increases” value (after initiation, at 30 mg/day or higher) was 4-10 weeks. For the same compound, the “patients who achieved or maintained normalised NCCcorrected, n (%)” value (at 24 weeks, of 28 patients) was 16 (57%), the “patients with at least a 25% reduction from baseline NCCcorrected, n (%)” value (at 24 weeks, of 28 patients) was 4 (14%) and the “patients meeting the criteria for treatment success” value (at 24 weeks, of 28 patients, normalised NCCcorrected (≤2.3 μmol/L) or ≥25% reduction) was 71%. The “reduction of mean NCCcorrected” value (baseline to week 24) was 72%, the “UWDRS part II score Change from baseline” value [1] was −3.7 and the “UWDRS part III score Change from baseline” value [1] was −8.7. The “Albumin Change from baseline” value [2] was 2.3 g/L, the “Bilirubin Change from baseline” value [2] was 0.02 mg/dL and the “EQVAS Change from baseline” value [2] was 9.2. For the same compound, the “INR Change from baseline” value [2] was −0.05, the “Modified Nazer score Change from baseline” value [2] was −0.4 and the “Platelets Change from baseline” value [2] was 2.3 1 × 10^9/L. The “MELD score Change from baseline” value (baseline to week 24, post-hoc, mixed-model repeated measures) was −0.5, the “increase of median peak ALT from baseline” value (in the 11 patients with liver enzyme increases) was 7.2 times and the “median peak ALT” value (in the 11 patients with liver enzyme increases, range 101-1341) was 197 U/L. For the same compound, the “ALT Change from baseline” value [3] was 48.4 U/L, the “AST Change from baseline” value [3] was 3.8 U/L and the “GGT Change from baseline” value [3] was 60.7 U/L. For the same compound, the “most pronounced ALT signal” value (one patient, 30 mg/day) was 1341 U/L, the “second highest ALT signal” value (one patient, 120 mg/day) was 615 U/L and the “patients with UWDRS part II score improved by at least one point, n (%)” value (week 24) was 12 (57%). The “patients with UWDRS part III score improved by 4 or more points, n (%)” value (week 24) was 14 (67%), the “Modified Nazer score Week 24 Mean (SD)” value (week 24, n=21, baseline 1.4 (1.0)) was 1.1 (0.6) and the “EQVAS Week 24 Mean (SD)” value (week 24, n=23, baseline 65.9 (23.0)) was 74.3 (16.9). For the same compound, the “INR Week 24 Mean (SD)” value (week 24, observed cases, n=22, baseline 1.11 (0.16)) was 1.06 (0.08), the “Bilirubin Week 24 Mean (SD)” value (week 24, observed cases, n=23, baseline 0.51 (0.29)) was 0.49 (0.27) mg/dL and the “NCCcorrected Week 24 Mean (SD)” value (week 24, observed cases, n=23, baseline 3.6 (2.1)) was 0.9 (1.0) μmol/L. For the same compound, the “AST Week 24 Mean (SD)” value (week 24, observed cases, n=23, baseline 36.6 (27.6)) was 28.2 (9.9) U/L, the “Albumin Week 24 Mean (SD)” value (week 24, observed cases, n=23, baseline 39.2 (5.4)) was 40.9 (3.2) g/L and the “ALT Week 24 Mean (SD)” value (week 24, observed cases, n=23, baseline 42.6 (32.8)) was 36.8 (18.7) U/L. For the same compound, the “GGT Week 24 Mean (SD)” value (week 24, observed cases, n=23, baseline 70.1 (64.0)) was 97.5 (77.7) U/L, the “Platelets Week 24 Mean (SD)” value (week 24, observed cases, n=23, baseline 155.5 (72.5)) was 147.9 (63.2) 1 × 10^9/L and the “MELD score Week 24 Mean (SD)” value (week 24, post-hoc, n=21, baseline 7.7 (1.9)) was 7.2 (1.8).
